This note sets out measurements from patent US9650674B2, “Nucleic acid probes and methods of using the same” (Board of Trustees University of Arkansas, priority 2012, dated 2017).

Data set [1] deals with NRK-52E cells. Kind of data set: Intracellular endonuclease activity in cultured cells, time-lapse microscopy. Type of data set: cell-based, rat. Particulars: 25 μM cisplatin or 50 μM camptothecin for 8 hours; FIGS. 4B and 4C. The protocol: To test whether AB259.3 probe may be delivered intracellularly and thus be used as an indicator of endonuclease activity in live cells, NRK-52E cells were transfected with of AB259.3/Lipofectamine LTX complexes and imaged by time-lapse epifluorescence microscopy every 10 min for 8 hours. A 2.5-3 times increased fluorescence reached plateau in 1 hour after transfection and the cells retained fluorescent dye for the duration of experiment (FIG. 4A). To induce activity of endonucleases, cells were treated with cisplatin or camptothecin and imaged by time-lapse microscopy for Cy5.5 fluorescence. […] Therefore, it was concluded that AB259.3 can be delivered and used for intracellular monitoring of endonuclease activity in live cells. To further determine whether AB259.3 probe can be used in other cell lines, several of them were tested (FIG. 4D). […] It was then determined whether the probe without the loop would be consumed by NRK-52E cells equally to the original loop probe. […] Finally, PCR was used to determine whether the DNA part (as opposed to the fluorophores) of the probes enters the cells in vivo and in vitro.
Rat proximal tubular epithelial NRK-52E cells were used to test the ability of AB259.3 probe to measure endonuclease activity. The cells were seeded in a 24-well plate at 50,000 cells per well in complete DMEM medium supplemented with 10% fetal bovine serum. Cells were transfected with the AB259.3 probe using Lipofectamin LTX and then subjected to spinning disk confocal fluorescent time-lapse microscopy in 628/40-692/40 spectrum every 10 min for 8 hours using Olympus IX-81 image system equipped with Hamamatsu ORCA-ER camera and LiveCell microenvironmental control chamber (Pathology Devices Inc., Westminster, Md.). In separate experiment, cells were treated with either 25 μM cisplatin or 50 μM camptothecin for 8 hours, followed by 1-hour transfection with AB259.3 probe and 8-hour time-lapse imaging session with 10-min intervals using the same microscopy system.

Data set [2] is described as follows: Baseline fluorescence of hairpin DNA probes. Type of data set: physicochemical. Particulars: FIG. 1B. An excerpt: It was impossible to determine if the background fluorescence was attributed to the probe or it originated from a partial degradation of the probe. Consequently, the NIRF probes were designed as hairpins to allow testing the integrity of DNA by its denaturing followed by reannealing. The use of hairpin also allows easy measurement of the maximum fluorescence of the probe. The distance between two fluorophores varied by changing of protruding DNA strand length from +0 (AB259.1 probe) to +5 (AB259.3 probe) or to +10 (AB259.5 probe) as shown in FIG. 1A. The baseline fluorescence of probe AB259.1 was 30% higher than negative control without a probe (FIG. 1B).
(§1) All cell-free experiments were performed using the Bio-Tek Synergy 5 fluorescent plate reader. Before experiments, optimal excitation and emission wavelengths were determined. For this, excitation and emission were scanned in the ranges of 600-680 nm and 690-705 nm, respectively. The optimal excitation/emission was determined to be 665/703 nm. All kinetic and endpoint measurements were done in a total volume of 100 μl at 37° C. Unless stated otherwise, DNA substrate was used in final concentration 0.5 μM reconstituted in endonuclease activity assay (EAA) buffer (2 mM CaCl2, 5 mM MgCl2, 10 mM Tris-HCl, pH 7.4) in a 96-well plate. After measurement of starting fluorescence, DNase I or tested material (diluted 1:20 urine or 1:100 serum) were added to the reconstituted probe, rapidly mixed and fluorescence was monitored for up to 60 min with 30-sec intervals. In some instances, EDTA (final concentration 200 μM) or NaOH (50 mM) was added to terminate the reaction. For the experiments that involved assessment of fluorescence after DNA denaturing, probes were tested in Cepheid real-time PCR system using Cy5 setting (Sunnyvale, Calif.).

Data set [3] in a line: Heat denaturing and reannealing of hairpin probes (probe integrity). Particulars: ROX internal reference; above background; FIG. 1C. Type of data set: physicochemical. The protocol:
To ensure the integrity of the DNA probes, it was tested whether a heat denaturing of the hairpins would cause an increase in fluorescence, and if a reannealing would reverse it. To compensate for thermal change of fluorophore's emission, the ROX fluorophore was added to tested probes as an internal reference.
as §1

Data set [4] in a line: Alkaline denaturing of probes, kinetic fluorescence. In kind it is physicochemical. The note with it: alkaline buffer. Here is the method: Lastly, the probes' integrity was tested by alkaline denaturing. The probes were treated with alkaline buffer and kinetic detection of the fluorescence was performed. […] AB259.1, AB259.3 and AB259.5 gained 40%, 81%, and 85% of fluorescence, respectively.
as §1

Data set [5] concerns the target T1, DNase I (Homo sapiens, UniProt P24855).
T1 construct: purchased Sigma (St. Louis, Mo.)
T1 sequence (P24855 23-282): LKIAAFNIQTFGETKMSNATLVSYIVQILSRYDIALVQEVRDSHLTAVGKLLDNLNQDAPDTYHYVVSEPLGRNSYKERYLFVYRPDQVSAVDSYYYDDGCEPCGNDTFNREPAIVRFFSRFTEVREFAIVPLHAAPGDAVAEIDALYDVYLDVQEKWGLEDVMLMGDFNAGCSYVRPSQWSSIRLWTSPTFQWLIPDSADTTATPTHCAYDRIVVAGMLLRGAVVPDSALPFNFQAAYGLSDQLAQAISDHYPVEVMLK
Kind of data set: Kinetic fluorescence of probes exposed to DNase I in vitro. Type of data set: biochemical. The note with it: probe 0.5 μM, DNase I 1 μg/ml; for gain of fluorescence compared to baseline: twenty min into the reaction, FIG. 2B. Here is the method: It was hypothesized that exposure of the probes to endonucleases would lead to DNA cleavage and dissociation of protruded strand from the hairpin (FIG. 2A). To assess which of the proposed probes is the best to measure endonuclease activity, the probes (0.5 μM) were exposed with recombinant human DNase I (1 μg/ml) and the kinetic fluorescence curves were recorded. Twenty min into the reaction, AB259.1, AB259.3 and AB259.5 gained 1.75-, 2.6- and 1.62-fold fluorescence, respectively, compared to the baseline (FIG. 2B). At 20-25 min, AB259.1 and AB259.3 reached the plateaus. […] Therefore, AB259.3 was chosen for further experiments.
(§2) To detect specificity of the assay to DNase I that is a Ca/Mg-dependent endonuclease, AB259.3 probe was tested with 1 μg/ml DNase I in the presence of Ca++ and Mg++ (EAA buffer), in absence of the cations (deionized water), or in excess of EDTA (200 μM). […] Finally, it was tested whether AB259.3 probe will detect inhibition of DNase I activity by DNase I inhibitors such as ZnCl2 and Zn-diisopropyl salicylate (Zn-DIPS).
as §1

In data set [6] the target is T1, DNase I. The data set can be described thus: DNase I endonuclease activity measured with AB259.3 probe in presence of inhibitors. Type of data set: biochemical. Particulars: 1 μg/ml DNase I; EDTA 200 μM; FIG. 2D. The protocol: as §2, §1
For data set [7], the system named is wild-type (WT) mouse kidney cryosections. The data set can be described thus: Endonuclease activity ex vivo in kidney cryosections. Particulars: FIG. 5C. The protocol:
Next it was examined whether AB259.3 probe can be used for measurement of endonuclease activity in tissue sections. Kidneys were used because they are known for high activity of DNase I (Ca/Mg-dependent endonuclease). Freshly prepared 10 μm thick cryosections of wild-type (WT) mouse kidney were exposed with 5 μM AB259.3 probe in presence of EAA buffer at 37° C. and time-lapse imaged for 10 min with 1-min intervals.
Specimens of kidney, liver, spleen and testis tissues were removed from euthanized mice, immersed in OCT medium, rapidly frozen by Fisher Freeze-it and kept on dry ice for no longer than 1 hour prior slicing. Tissue cryosections (8-μm thick) were prepared using the Microm HM 505E cryotome, placed to the Fisher Plus slides and immediately exposed with 0.5 μM AB259.3 probe diluted in EAA buffer. In control samples, applied probe contained EAA buffer supplemented with 200 μM EDTA. Images were taken in 628/40-692/40 spectrum every 30 sec for 10 min in 10 random XY coordinates. Three sections from each specimen were analyzed separately. Maximal velocity of increasing fluorescence was averaged for each section.

The test system of data set [8] is WT and DNase I KO mice. The data set can be described thus: Intravital imaging of endonuclease activity in kidneys. Particulars: 5 μl DNase I (0.1 mg/ml) subcapsular, left kidney, then AB259.3 50 nmol/kg i.v.; FIGS. 7F and 7G.
From the text: At the next step, WT and DNase I KO mice were anesthetized and intravenously administered with 50 nmol/kg of AB259.3 probe followed by intravital imaging using Xenogen-IVIS.
To additionally confirm preferential accumulation and processing of AB259.3 probe in kidneys, separate set of mice was deeply anesthetized and subjected to abdominal incision and real-time intravital visualization of left kidney while performing intravenous injection of AB259.3 probe. […] For this, DNase I KO animals were subjected to open surgery that was used to administer 5 μl DNase I (0.1 mg/ml) to subcapsular space of upper ventral zone of left kidney. To control effect of DNase I, additional WT and DNase I KO mice were injected with same volume of the vehicle. Immediately after injection, mice were injected with 50 nmol/kg of AB259.3 probe intravenously and then imaged in a Xenogen-IVIS.
Male DNase I KO mice and their WT counterparts at the age 8-10 weeks were used for all experiments. All procedures with mice were performed under general anesthesia with 50 mg/kg ketamine. For subcutaneous administration, mice were injected with 10 μl of 0.1 μM AB259.3 in the dorsal subcutaneous site. For systemic visualization, AB259.3 was injected intravenously at 50 nmol/kg in tail vein.
Imaging of live and euthanized mice or their isolated organs were performed using Xenogen IVIS Image System 200 (Caliper Life Sciences, Hopkinton, Mass.) equipped with Living Image® Software.

{Cy5.5} = Cy5.5 near-infrared fluorophore label at the ends

For `N.N.[Cl][Pt][Cl]` [cisplatin, reference compound], the “induction of endonuclease activity (Cy5.5 fluorescence of AB259.3 in treated cells)” value in data set [1] was “significant increase of fluorescence”.

Turning to “[Cy5.5]AACACTCCGATGAGTGTA[Cy5.5] (DNA, 5' {Cy5.5}, 3' {Cy5.5}, backbone not given here; hairpin DNA probe) [AB259.1, hairpin DNA probe with Cy5.5 at both ends, protruding strand +0]”, the “baseline fluorescence higher than negative control without a probe” value in data set [2] came to 30%. The “gain of fluorescence on heat denaturing” value in data set [3] is on record as 2.7 times. For the same molecule, the “gain of fluorescence on alkaline denaturing” value in data set [4] amounted to 40%. Besides, the “gain of fluorescence compared to baseline” value in data set [5] worked out at 1.75 fold.

On to “[Cy5.5]AACACTCCGATGAGTGTAGAATGTACGAGT[Cy5.5] (DNA, 5' {Cy5.5}, 3' {Cy5.5}, backbone not given here; hairpin DNA probe) [AB259.5, hairpin DNA probe with Cy5.5 at both ends, protruding strand +10]”, for which, in data set [2] (correlated with length of protruded DNA end), the “baseline fluorescence (in words)” value is on record as “much higher levels of the baseline fluorescence”. Besides, the “gain of fluorescence on heat denaturing” value in data set [3] is given as 1.8 times. The “gain of fluorescence on alkaline denaturing” value in data set [4] turned out to be 85%. In data set [5], the “behaviour of fluorescence at 20-25 min (in words)” value was “became variable and did not yield reliable gain of fluorescence thereafter”; the “gain of fluorescence compared to baseline” value was determined as 1.62 fold.

Regarding `O=C(O)CN(CCN(CC(=O)O)CC(=O)O)CC(=O)O` [EDTA, reference compound], the “effect on DNase I activity detected by AB259.3 fluorescence” value (“effect on DNase I activity detected” below) in data set [6] is on record as “inhibited”. Moreover, the “effect of EDTA on fluorescence increase in cryosections” value in data set [7] was “the increase of fluorescence was prevented”.

For `CC[C@@]1(O)C(=O)OCc2c1cc1n(c2=O)Cc2cc3ccccc3nc2-1` [camptothecin, reference compound], the “induction of endonuclease activity (Cy5.5 fluorescence of AB259.3 in treated cells)” value in data set [1] is “significant increase of fluorescence”.

On to `CC(C)c1cc(C(=O)O)c([O-])c(C(C)C)c1.CC(C)c1cc(C(=O)O)c([O-])c(C(C)C)c1.[Zn+2]` [Zn-DIPS, zinc-diisopropyl salicylate], for which the “effect on DNase I activity detected” value in data set [6] was “suppressed”.

Turning to `[Cl-].[Cl-].[Zn+2]` [ZnCl2, zinc chloride], the “effect on DNase I activity detected” value in data set [6] is on record as “suppressed”.

B1: DNase I: recombinant DNase I delivered to the kidneys of DNase I KO mice (protein, UniProt P24855 23-282, looked up)
Deoxyribonuclease-1: T1 sequence (P24855 23-282)
Take B1: the “kidney Cy5.5 fluorescence of DNase I KO mice after subcapsular DNase I” value in data set [8] is recorded as “Cy5.5 fluorescence comparable to WT mice”.
